# Measured values taken from patent US20210222181A1, “BACTERIAL VECTORS FOR GENETIC MANIPULATION OF BACTERIA” (BIOVERSYS AG, priority 2018, published 2021).
# Test system: clinical P. aeruginosa strains
# Test: Inhibition of motility of clinical P. aeruginosa strains on LB-agar plates
# Format: cell-based, Pseudomonas aeruginosa
# Details: three clinical isolates of P. aeruginosa, 10 μg/ml C15 in LB-agar, 16 h at 37° C., compared with absence of C15
# Method: Motility of clinical P. aeruginosa strains was inhibited by 12-Methyl-tetradecanoic acid (C15). Three different clinical isolates of P. aeruginosa were plated on LB-agar plates in the absence (FIG. 9, left) and presence (FIG. 9, right) of 10 μg/ml C15 to inhibit cellular motility. The plates were incubated for 16 h at 37° C. […] In contrast, in the absence of C15, the colonies are diffuse and swarm into each other, making the selection of distinct single colonies in the knock-out screening process very difficult.
compound,measurement,setting,value
"CCC(C)CCCCCCCCCCC(=O)O (centres unmarked) [C15, 12-Methyl-tetradecanoic acid]",cellular motility / colony morphology on Luria Bertani agar plates,,"inhibited the cellular motility, leading to small well-defined colonies"
same,cellular motility / colony morphology on Luria Bertani agar plates,listed as 12-Methyl-tetradecanoic acid (C15),Inhibition of the motility
